In test [1] the target is T1, α1a-AR (Homo sapiens, UniProt P35348).
T1 construct: expressed in transfected cells; host or cells: COS cells (transient, DEAE-dextran), membranes
T1 sequence (P35348 1-466): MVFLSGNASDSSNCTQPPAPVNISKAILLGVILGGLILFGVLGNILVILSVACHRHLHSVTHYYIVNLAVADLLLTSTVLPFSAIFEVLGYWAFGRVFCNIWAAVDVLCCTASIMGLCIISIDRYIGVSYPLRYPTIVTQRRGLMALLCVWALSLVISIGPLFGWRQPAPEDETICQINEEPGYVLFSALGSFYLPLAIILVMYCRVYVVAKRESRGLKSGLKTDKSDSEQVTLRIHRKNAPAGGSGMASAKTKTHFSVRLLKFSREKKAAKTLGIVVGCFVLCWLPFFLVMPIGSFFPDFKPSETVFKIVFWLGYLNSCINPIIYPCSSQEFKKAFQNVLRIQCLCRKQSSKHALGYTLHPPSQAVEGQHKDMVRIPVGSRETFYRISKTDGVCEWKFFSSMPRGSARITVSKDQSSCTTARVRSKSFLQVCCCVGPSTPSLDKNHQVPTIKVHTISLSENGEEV
The test can be described thus: Radioligand ([125I]-HEAT) receptor binding assay, COS cell membranes expressing α1a-AR. Particulars: [125I]-HEAT 50 pM. The text has this:
(§1) The DNA sequences of the three cloned human α1-AR subtypes have been published. […] We used published DNA sequence information to design primers for use in RT-PCR amplification of each subtype to obtain cloned cDNAs. Human poly A+ RNA was obtained from commercially available sources and included hippocampus and prostate samples, sources which have been cited in the literature. For the primary screen a radio ligand binding assay was used which employed membrane preparations from cells expressing the individual cloned receptor cDNAs. Radiolabeled ligands with binding activity on all three subtypes (non-selective) are commercially available ([125I]-HEAT, [3H]-prazosin).
(§2) Each α1 receptor subtype was cloned from poly A+ RNA by the standard method of reverse transcription-polymerase chain reaction (RT-PCR). The following sources of polyA+ RNA were used for the cloning of the α1 receptor subtypes: α1a-AR, human hippocampus and prostate, α1b-AR, human hippocampus, α1d-AR, human hippocampus. The resulting cDNAs were cloned into the pcDNA3 mammalian expression vector (Invitrogen Corp., San Diego Calif.). Each DNA was sequenced for verification and to detect any possible mutations introduced during the amplification process. Any deviation in sequence from the published consensus for each receptor subtype was corrected by site-directed mutagenesis.
(§3) The three α1-AR subtypes (a, b, d) were transfected into COS cells using a standard DEAE-dextran procedure with a chloroquine shock. In this procedure, each tissue culture dish (100 mm) was inoculated with 3.5×10^6 cells and transfected with 10 μg of DNA. Approximately 72 hours post-transfection, the cells were harvested and COS membranes were prepared. Transfected COS cells from 25 plates (100 mm) were scraped and suspended in 15 mL of TE buffer (50 mM Tris-HCl, 5 mM EDTA, pH7.4). The suspension was disrupted with a homogenizer. It was then centrifuged at 1000×g for 10 minutes at 4° C. The supernatant was centrifuged at 34,500×g for 20 minutes at 4° C. The pellet was resuspended in 5 mL TNE buffer (50 mM Tris-HCl, 5 mM EDTA, 150 mM NaCl, pH7.4). The resulting membrane preparation was aliquoted and stored at −70° C. The protein concentration was determined following membrane solubilization with TritonX-100.
(§4) The ability of each compound to bind to each of the α1-AR subtypes was assessed in a receptor binding assay. [125I]-HEAT, a non-selective α1-AR ligand, was used as the radiolabeled ligand. Each well of a 96-well plate received: 140 μL TNE, 25 μL [125I]-HEAT diluted in TNE (50,000 cpm; final concentration 50 pM), 10 μL test compound diluted in DMSO (final concentration 1 pM-[…]), […] COS cell membrane preparation expressing one of the three α1-AR subtypes (0.05-0.2 mg membrane protein). The plate was incubated for 1 hour at room temperature and the reaction mixtures were filtered through a Packard GF/C Unifilter filter plate. The filter plate was dried for 1 hour in a vacuum oven. Scintillation fluid ([…]) was added to each well, and the filter plate was counted in a Packard Topcount scintillation counter. Data was analyzed using GraphPad Prism software.
(§5) Tables A & B list the IC50 values expressed in nanomolar concentration for select compounds of the invention in all receptor subtypes.

Test [2] deals with T2, α1b-AR (Homo sapiens, UniProt P35368).
T2 construct: expressed in transfected cells; host or cells: COS cells (transient, DEAE-dextran), membranes
T2 sequence (P35368 1-520): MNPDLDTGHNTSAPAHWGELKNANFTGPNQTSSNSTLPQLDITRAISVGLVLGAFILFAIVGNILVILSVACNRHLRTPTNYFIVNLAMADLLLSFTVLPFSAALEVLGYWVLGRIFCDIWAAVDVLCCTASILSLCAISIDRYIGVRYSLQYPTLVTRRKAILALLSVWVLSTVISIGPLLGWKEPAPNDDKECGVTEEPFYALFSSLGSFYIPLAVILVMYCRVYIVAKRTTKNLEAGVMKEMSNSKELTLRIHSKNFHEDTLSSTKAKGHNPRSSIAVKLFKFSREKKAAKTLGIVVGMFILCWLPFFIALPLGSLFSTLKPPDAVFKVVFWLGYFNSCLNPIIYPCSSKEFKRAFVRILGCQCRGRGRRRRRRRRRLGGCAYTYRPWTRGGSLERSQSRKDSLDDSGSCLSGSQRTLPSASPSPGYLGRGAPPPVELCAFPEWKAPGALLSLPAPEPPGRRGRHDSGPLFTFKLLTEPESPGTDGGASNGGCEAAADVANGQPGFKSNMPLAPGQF
In words: Radioligand ([125I]-HEAT) receptor binding assay, COS cell membranes expressing α1b-AR. The conditions noted are these: [125I]-HEAT 50 pM.
Excerpt: as §1, §2, §3, §4, §5

The target in test [3] is T3, α1d-AR (Homo sapiens, UniProt P25100).
T3 construct: expressed in transfected cells; host or cells: COS cells (transient, DEAE-dextran), membranes
T3 sequence (P25100 1-572): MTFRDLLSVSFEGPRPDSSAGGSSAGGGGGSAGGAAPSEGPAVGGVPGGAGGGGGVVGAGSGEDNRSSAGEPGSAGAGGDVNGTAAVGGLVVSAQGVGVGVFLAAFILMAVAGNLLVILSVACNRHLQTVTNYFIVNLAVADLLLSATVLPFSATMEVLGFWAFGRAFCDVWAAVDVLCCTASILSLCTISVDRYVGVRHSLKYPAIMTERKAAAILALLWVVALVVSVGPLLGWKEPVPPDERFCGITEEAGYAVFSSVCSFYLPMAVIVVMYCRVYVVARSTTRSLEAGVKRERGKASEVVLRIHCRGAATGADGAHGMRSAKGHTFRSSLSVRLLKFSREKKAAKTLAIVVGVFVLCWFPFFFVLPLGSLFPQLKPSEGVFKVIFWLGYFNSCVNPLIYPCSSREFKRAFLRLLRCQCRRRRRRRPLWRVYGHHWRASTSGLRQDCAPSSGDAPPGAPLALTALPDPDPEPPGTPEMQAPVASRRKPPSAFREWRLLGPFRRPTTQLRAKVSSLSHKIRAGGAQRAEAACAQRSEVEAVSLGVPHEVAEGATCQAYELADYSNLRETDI
In words: Radioligand ([125I]-HEAT) receptor binding assay, COS cell membranes expressing α1d-AR. The conditions noted are these: [125I]-HEAT 50 pM.
Excerpt: as §1, §2, §3, §4, §5

Test [4] has as its target T4, HEK 293s cells expressing human α1a-AR (Homo sapiens, UniProt P35348).
T4 construct: expressed in transfected cells
T4 sequence (P35348 1-466): T1 sequence (P35348 1-466)
The test can be described thus: Antagonism of norepinephrine-induced mobilization of cytosolic calcium (Fluo-3, FLIPR). Format: cell-based. The conditions noted are these: norepinephrine 10 uM, read-out: IC50 for inhibition of the mobilization of cytosolic calcium. The text has this: Binding of an agonist to α1-ARs causes the activation of PLC through G-protein coupled mechanisms (Minneman and Esbenshade, 1994). PLC catalyzes the hydrolysis of phosphatidyl inositol 4,5-bisphosphate (PIP2) generating two second messenger molecules, inositol 1,4,5-triphosphate (IP3) and diacylglycerol (DAG) and ultimately resulting in mobilization of intracellular calcium stores.
Preparation of stable cell lines expressing each receptor subtype: The alpha 1 adrenergic receptor subtypes (a, b, d) in the pcDNA3 vector were transfected into HEK 293s (human embryonic kidney) cells to form stable receptor-expressing cell lines. Transfection was performed using DMRIE-C (GibcoBRL) cationic lipid reagent mixed with 2-3 ug of DNA and reduced serum OPTI-MEM 1 medium (GibcoBRL). Cells in 100 mm tissue culture plates were overlayed with the lipid-DNA complex and incubated at 37° C., 5% CO2 for 5-6 hours. Serum-containing growth medium was then added and cells were incubated for an additional 48 hours. […] Positive cultures were subsequently analyzed by the calcium mobilization assay.
HEK 293s cells expressing human α1a-AR were lifted with trypsin and washed once with HBSS. […] Afterward, the agonist was added and fluorescent signal was monitored for 2-3 minutes using FLIPR (Molecular Devices, USA).

Test [5] relates to rat aorta tissue (α1b-AR and α1d-AR). In words: Norepinephrine-induced contractile response of rat aorta tissue. The conditions noted are these: rat aortic rings, 37° C., read-out: IC50 for inhibition of contractile response in aortic tissue. The text has this:
(§6) The contractile responses of rat prostatic tissue and rat aorta tissues were examined in the presence and absence of antagonist compounds. As an indication of the selectivity of antagonism, test compound effects on vascular smooth muscle contractility (α1b-AR and α1d-AR) were compared to the effects on prostatic smooth muscle (α1a-AR). Strips of prostatic tissue and aortic rings were obtained from Long Evans derived male rats weighing 275 grams and sacrificed by cervical dislocation. The prostate tissue was placed under 1 gram tension in a 10 ml bath containing phosphate buffered saline pH 7.4 at 32° C. and isometric tension was measured with force transducers. The aortic tissue was placed under 2 grams tension in a 10 ml bath containing phosphate buffered saline pH 7.4 at 37° C. The ability of test compound to reduce the norepinephrine-induced contractile response by 50% (IC50) was determined.

Test [6] relates to rat prostatic tissue (α1a-AR). In words: Norepinephrine-induced contractile response of rat prostatic tissue. The conditions noted are these: rat prostatic strips, 32° C., read-out: IC50 for inhibition of contractile response in prostate tissue.
Excerpt: as §6

Among the data in patent US6890921B1, “Arylsubstituted piperazines useful in the treatment of benign prostatic hyperplasia” (Ortho-McNeil Pharmaceutical, Inc., priority 1997, dated 2005) are IC50 values, retold here.

For orientation: IC50 means the concentration at which inhibition is half-maximal. As for `CC(C)Oc1ccccc1N1CCN(CCN(C)C(=O)CN2CCCCC2=O)CC1` [Cpd. 6], the IC50 in test [1] (Table A) is 0.053 µM; in test [2] (Table A) it was 764 µM; in test [3] (Table A) it was 0.65 µM.

On to `COc1ccccc1N1CCN(CCCNC(=O)CN2CCCCC2=O)CC1` [compound 12], for which the figures for the IC50 in test [1] (Table A), in test [2] (Table A) and in test [3] (Table A) were 0.098 µM, 109 µM and 30.5 µM, respectively.

Take `CC(C)Oc1ccccc1N1CCN(CCNC(=O)CN2CCCCC2=O)CC1` [Cpd. 5]: the IC50 came out at 0.0087 µM in test [1] (Table A); 46.1 µM in test [2] (Table A); 0.372 µM in test [3] (Table A); 99 µM in test [4]; 31.9 µM in test [5]; 1.3 µM in test [6].

`CC(C)Oc1ccccc1N1CCN(CCN(Cc2ccccc2)C(=O)CN2CCCCC2=O)CC1` [compound 9]: the values for the IC50 in test [1] (Table A), in test [2] (Table A) and in test [3] (Table A) were 0.088 µM, 4.23 µM and 0.348 µM, respectively.

For the compound `C=CCN(CCN1CCN(c2ccccc2OC(C)C)CC1)C(=O)CN1CCCCC1=O` [compound 7], the IC50 in test [1] (Table A) came out at 0.103 µM; in test [2] (Table A) it was 173 µM; in test [3] (Table A) it was 0.372 µM.

Turning to `CC(C)Oc1ccccc1N1CCN(CCNC(=O)CN2CCCCCC2=O)CC1` [compound 11], the half-maximal inhibitory concentration (IC50) in test [1] (Table A) was 0.018 µM; in test [2] (Table A) it was 3.54 µM; in test [3] (Table A), 0.505 µM.

As for `CC(C)Oc1ccccc1N1CCN(CCNC(=O)CN2C(=O)c3ccccc3C2=O)CC1` [compound 13], the results for the IC50 in test [1] (Table B), in test [2] (Table B) and in test [3] (Table B) were 0.104 µM, 1.62 µM and 0.011 µM, respectively.

For the compound `CCOC(=O)C1CCC(=O)N1CC(=O)NCCN1CCN(c2ccccc2OC(C)C)CC1` (stereo not drawn) [compound 10], the IC50 was 0.02 µM in test [1] (Table A), 26.3 µM in test [2] (Table A) and 0.26 µM in test [3] (Table A).
